Laboratory results taken from patent US20250346593A1, “IMIDAZO(1,2-1)PYRIDINE DERIVATIVES AS RIPK2 INHIBITORS” (Interline Therapeutics, Inc., priority 2022, published 2025).
Read-outs that look alike come from different tables or passages of the source.

What was measured:
[1] = test system: NF-κB pathway (SEAP) in THP1-Dual cells; experiment: THP-1 Dual cell SEAP assay (L18-MDP stimulated); type: cell-based; details: Homo sapiens, THP1-Dual, read-out: NFkB THP1 IC50
[2] = molecular target: GST-RIPK2 fusion protein (human RIPK2 amino acids 1-310) (Homo sapiens (Human), UniProt O43353); experiment: RIPK2 binding competition assay (TR-FRET, Tracer 199)
[3] = read-out: RIPK2 IC50, RIPK2 binding competition assay

Chain of GST-RIPK2 fusion protein (human RIPK2 amino acids 1-310) (O43353 1-310): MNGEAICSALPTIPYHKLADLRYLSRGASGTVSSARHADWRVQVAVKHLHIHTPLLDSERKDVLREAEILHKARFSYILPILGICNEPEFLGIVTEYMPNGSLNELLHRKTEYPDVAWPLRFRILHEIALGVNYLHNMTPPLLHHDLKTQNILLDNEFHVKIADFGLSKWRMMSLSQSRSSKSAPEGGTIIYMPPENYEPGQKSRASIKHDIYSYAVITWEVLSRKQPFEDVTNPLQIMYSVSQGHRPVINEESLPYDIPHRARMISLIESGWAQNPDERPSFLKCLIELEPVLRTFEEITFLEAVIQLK

`COc1cc2ncc(-c3cc(NCCCO)c(=O)n(C)c3)n2cc1S(=O)(=O)C(C)(C)C` [Example 125, 5-(6-(tert-butylsulfonyl)-7-methoxyimidazo[1,2-a]pyridin-3-yl)-3-((3-hydroxypropyl)amino)-1-methylpyridin-2(1H)-one] gave an IC50 [1] of 50 to 250 nM and an IC50 [2] of 2.5 to 20 nM.
`COc1cc(N)cc(-c2cnc3cc(OC)c(S(=O)(=O)C(C)(C)C)cn23)n1` [Example 126, 2-(6-(tert-butylsulfonyl)-7-methoxyimidazo[1,2-a]pyridin-3-yl)-6-methoxypyridin-4-amine] gave an IC50 [1] greater than 1000 nM and an IC50 [2, 3] greater than 20 nM.
Work on `COc1cc2ncc(-c3ccc(F)c(N)c3)n2cc1S(=O)(=O)C(C)(C)C` [Example 127, 5-(6-(tert-butylsulfonyl)-7-methoxyimidazo[1,2-a]pyridin-3-yl)-2-fluoroaniline] yielded an IC50 [1] greater than 1000 nM and an IC50 [2, 3] greater than 20 nM.
With `COc1cc2ncc(-c3cnc(N)c(N)n3)n2cc1S(=O)(=O)C(C)(C)C` [Example 128, 5-(6-(tert-butylsulfonyl)-7-methoxyimidazo[1,2-a]pyridin-3-yl)pyrazine-2,3-diamine] the IC50 [1] was greater than 1000 nM and the IC50 [2, 3] was greater than 20 nM.
Molecule `COc1cc2ncc(-c3cc(F)nc(OCCCO)c3)n2cc1S(=O)(=O)C(C)(C)C` [Example 129, 3-({6-fluoro-4-[7-methoxy-6-(2-methylpropane-2-sulfonyl)imidazo[1,2-a]pyridin-3-yl]pyridin-2-yl}oxy)propan-1-ol] has an IC50 [1] greater than 1000 nM and an IC50 [2, 3] greater than 20 nM.
`CCCS(=O)(=O)Nc1cc(-c2cnc3cc(OC)c(S(=O)(=O)C(C)(C)C)cn23)ccc1OC` [Example 130, N-{2-methoxy-5-[7-methoxy-6-(2-methylpropane-2-sulfonyl)imidazo[1,2-a]pyridin-3-yl]phenyl}propane-1-sulfonamide] was tested, and the IC50 [1] was 250 to 1000 nM and the IC50 [2] was 1 to 2.5 nM.
`CCCS(=O)(=O)Nc1cc(OC)cc(-c2cnc3cc(OC)c(S(=O)(=O)C(C)(C)C)cn23)c1` [Example 131, N-{3-methoxy-5-[7-methoxy-6-(2-methylpropane-2-sulfonyl)imidazo[1,2-a]pyridin-3-yl]phenyl}propane-1-sulfonamide] was tested, and the IC50 [1] was less than 50 nM and the IC50 [2, 3] was less than 1 nM.
For `CCCS(=O)(=O)Nc1cc(OC)cc(-c2cnc3cc(OCC)c(S(=O)(=O)C(C)C)cn23)c1` [Example 132, N-{3-[7-ethoxy-6-(propane-2-sulfonyl)imidazo[1,2-a]pyridin-3-yl]-5-methoxyphenyl}propane-1-sulfonamide], the IC50 [1] was 50 to 250 nM and the IC50 [2, 3] was less than 1 nM.
In the case of `CCCS(=O)(=O)Nc1cc(-c2cnc3cc(OCC)c(S(=O)(=O)C(C)C)cn23)ccc1OC` [Example 133, N-{5-[7-ethoxy-6-(propane-2-sulfonyl)imidazo[1,2-a]pyridin-3-yl]-2-methoxyphenyl}propane-1-sulfonamide], the IC50 [1] is reported as 250 to 1000 nM and the IC50 [2] is reported as 2.5 to 20 nM.
`CCCS(=O)(=O)Nc1cc(-c2cnc3cc(OC)c(S(=O)(=O)C(C)(C)C)cn23)ccc1OC(F)(F)F` [Example 134, N-{5-[7-methoxy-6-(2-methylpropane-2-sulfonyl)imidazo[1,2-a]pyridin-3-yl]-2-(trifluoromethoxy)phenyl}propane-1-sulfonamide] gave an IC50 [1] of 250 to 1000 nM and an IC50 [2] of 2.5 to 20 nM.
In the case of `CCCS(=O)(=O)Nc1cc(OC(F)(F)F)cc(-c2cnc3cc(OC)c(S(=O)(=O)C(C)(C)C)cn23)c1` [Example 135, N-{3-[7-methoxy-6-(2-methylpropane-2-sulfonyl)imidazo[1,2-a]pyridin-3-yl]-5-(trifluoromethoxy)phenyl}propane-1-sulfonamide], the IC50 [1] is reported as greater than 1000 nM and the IC50 [2] is reported as 2.5 to 20 nM.
With `CCCS(=O)(=O)Nc1cc(-c2cnc3cc(OC)c(S(=O)(=O)C(C)(C)C)cn23)cc(OC)c1C` [Example 136, N-(5-(6-(tert-Butylsulfonyl)-7-methoxyimidazo[1,2-a]pyridin-3-yl)-3-methoxy-2-methylphenyl)propane-1-sulfonamide] the IC50 [1] was greater than 1000 nM and the IC50 [2] was 2.5 to 20 nM.
With `CCCS(=O)(=O)Nc1cc(-c2cnc3cc(OC)c(C(=O)N(C)C)cn23)cc(OC)c1OC` [Example 137, 3-[3,4-dimethoxy-5-(propane-1-sulfonamido)phenyl]-7-methoxy-N,N-dimethylimidazo[1,2-a]pyridine-6-carboxamide] the IC50 [1] was 250 to 1000 nM and the IC50 [2] was 2.5 to 20 nM.
`CCCS(=O)(=O)Nc1cc(-c2cnc3cc(OC)c(S(=O)(=O)C(C)(C)C)cn23)cc(OC(F)(F)F)c1F` [Example 138, N-{2-fluoro-5-[7-methoxy-6-(2-methylpropane-2-sulfonyl)imidazo[1,2-a]pyridin-3-yl]-3-(trifluoromethoxy)phenyl}propane-1-sulfonamide] was tested, and the IC50 [1] was greater than 1000 nM and the IC50 [2, 3] was greater than 20 nM.
`CCCS(=O)(=O)Nc1cc(-c2cnn3ccc(S(=O)(=O)C(C)(C)C)cc23)cc(OC)c1OC` [Example 139, N-(5-(5-(tert-butylsulfonyl)pyrazolo [1,5-a]pyridin-3-yl)-2,3-dimethoxyphenyl) propane-1-sulfonamide] showed an IC50 [1] of 50 to 250 nM and an IC50 [2] of 1 to 2.5 nM.
In the case of `CCCS(=O)(=O)Nc1cc(-c2cnn3cc(OC)c(S(=O)(=O)C(C)(C)C)cc23)cc(OC)c1OC` [Example 140, N-(5-(5-(tert-butylsulfonyl)-6-methoxypyrazolo[1,5-a]pyridin-3-yl)-2,3-dimethoxyphenyl) propane-1-sulfonamide], the IC50 [1] is reported as less than 50 nM and the IC50 [2, 3] is reported as less than 1 nM.
`COc1cn2ncc(-c3cc(NS(C)(=O)=O)c(OC)c(OC)c3)c2cc1S(=O)(=O)C(C)(C)C` [Example 141, N-(5-(5-(tert-butylsulfonyl)-6-methoxypyrazolo[1,5-a]pyridin-3-yl)-2,3-dimethoxyphenyl) methanesulfonamide] gave an IC50 [1] of 50 to 250 nM and an IC50 [2] of 1 to 2.5 nM.
In the case of `COc1cc2ncc(-c3ccc(N)c(OC(F)F)c3)n2cc1S(=O)(=O)C(C)(C)C` [Example 142, 4-(6-(tert-butylsulfonyl)-7-methoxyimidazo[1,2-a]pyridin-3-yl)-2-(difluoromethoxy)aniline], the IC50 [1] is reported as 250 to 1000 nM and the IC50 [2] is reported as 2.5 to 20 nM.
For `CCc1ccc(-c2cnc3cc(OC)c(S(=O)(=O)C(C)(C)C)cn23)cc1NS(C)(=O)=O` [Example 143, N-(5-(6-(tert-butylsulfonyl)-7-methoxyimidazo[1,2-a]pyridin-3-yl)-2-ethylphenyl) methanesulfonamide], the IC50 [1] was greater than 1000 nM and the IC50 [2] was 2.5 to 20 nM.
Work on `CCCS(=O)(=O)Nc1cc(-c2cnc3ccccn23)cc(F)c1OC` [Example 144, N-(3-fluoro-5-(imidazo[1,2-a]pyridin-3-yl)-2-methoxyphenyl) propane-1-sulfonamide] yielded an IC50 [1] greater than 1000 nM and an IC50 [2, 3] greater than 20 nM.
`CCCS(=O)(=O)Nc1cc(-c2cnc3cc(OC)c(S(=O)(=O)C(C)(C)C)cn23)cc(OC(F)F)n1` [Example 145, N-(4-(6-(tert-butylsulfonyl)-7-methoxyimidazo[1,2-a]pyridin-3-yl)-6-(difluoromethoxy)pyridin-2-yl)propane-1-sulfonamide] showed an IC50 [1] of 250 to 1000 nM and an IC50 [2] of 1 to 2.5 nM.
With `CCCS(=O)(=O)Nc1cc(-c2cnc3cc(OC)c(C(C)(C)O)cn23)cc(F)c1OC` [Example 146, N-(3-fluoro-5-(6-(2-hydroxypropan-2-yl)-7-methoxyimidazo[1,2-a]pyridin-3-yl)-2-methoxyphenyl)propane-1-sulfonamide] the IC50 [1] was 50 to 250 nM and the IC50 [2] was 1 to 2.5 nM.
In the case of `COc1cc2ncc(-c3cc(F)c(OCc4ccccc4)c(NS(C)(=O)=O)c3)n2cc1S(=O)(=O)C(C)(C)C` [Example 147, N-(2-(benzyloxy)-5-(6-(tert-butylsulfonyl)-7-methoxyimidazo[1,2-a]pyridin-3-yl)-3-fluorophenyl) methanesulfonamide], the IC50 [1] is reported as greater than 1000 nM and the IC50 [2] is reported as greater than 20 nM.
